The results in this text go back to US9802880B2, “Cannabigerol derivatives” (VIVACELL BIOTECHNOLOGY ESPAÑA S.L., priority 2014, dated 2017).

The subject of series [1] is PPARg. As to the kind of experiment: PPARg transactivation assay in human dermal primary fibroblasts. Type of series: cell-based. The note with it: 6 h treatment, FIG. 2. The text has this:
FIG. 2. PPARg Transactivation Assays in Human Dermal Primary Fibroblasts.

In series [2] the test system is N2a cells. As to the kind of experiment: Neuroprotection assay, glutamate-induced excitotoxicity in N2a cells. Type of series: cell-based. To be noted: 1 h pre-incubation, then 5 mM glutamate 24 h, FIG. 5. On the procedure: N2a cells were pre-incubated for 1 h with compounds (II) to (V) and (XII) at the indicated concentrations. Then, cells were treated for 24 h with 5 mM glutamate to induce excitotoxicity, or cytotoxicity in neuronal cells induced by neurotransmitters. Cell viability was quantified by MTT assay. […] Control was set as 100% and data were referred to that value.
Cultured N2A cells were pre-incubated with the compounds II, III, IV, V and XII at the indicated concentrations for 1 h and then treated with 5 mM glutamate to induce excitotoxicity during 24 h (FIG. 5). Cytotoxicity was determined by the MTT method as described in example 3. Results are shown as mean±S.D. from at least three independent experiments, and expressed as percentage of cell viability against the control sample (−). Control was set as 100% and data were referred to that value.

For series [3], the system named is PPARg. In words: PPARg transactivation assay in HEK-293 cells (GAL4-PPARγ / GAL4-luc). The note with it: for increase of PPARg activity: 1 μM concentration; for PPARg activation (fold) compared with CBG-Q: HEK-293 cells, 6 h treatment, FIG. 1; for PPARg transactivation (luciferase activity, fold induction over untreated cells): increasing doses, 6 h.
Setting [4] is: text refers to FIG. 1 and FIG. 2.

SMILES strings stand for the structures. A value given as a limit tells only on which side of the number the result lay.

In the case of `CCCCCC1=C(C(=O)OC)C(=O)C(C/C=C(\C)CCC=C(C)C)=C(O)C1=O` [Compound II, 6-(3,7-dimethyl-octa-2,6-dienyl)-5-hydroxy-3-pentyl-2-metoxycarbonil-[1,4]benzoquinone], the “PPARg activation (fold) compared with CBG-Q” value (shortened to “PPARg activation (fold)”) in series [1] and in series [3] was “higher efficiency than CBG-Q” each time. Besides, the “protection from glutamate-induced cytotoxicity (cell viability, MTT)” value (shortened to “protection”) in series [2] is reported as “protect neuronal cells from glutamate-induced apoptosis”. Further, the “increase of PPARg activity” value in series [3] (setting [4]) is ≤ 12 times. In series [3] (concentrations of 1 to 25 μM, text refers to FIG. 1 and FIG. 2), the “potency to activate PPARg compared with CBG-Q” value was “significantly more potent than compound CBG-Q”.
As to `CCCCCNC1=C(CCCCC)C(=O)C(O)=C(C/C=C(\C)CCC=C(C)C)C1=O` [Compound IV, 6-(3,7-dimethyl-octa-2,6-dienyl)-5-hydroxy-3-pentyl-2-pentylamino-[1,4]benzoquinone], the “PPARg activation (fold)” value in series [1] and in series [3] was “higher efficiency than CBG-Q” each time. In addition, the “protection” value in series [2] is given as “protect neuronal cells from glutamate-induced apoptosis”. Also, the “PPARg transactivation (luciferase activity, fold induction over untreated cells)” value in series [3] (setting [4]) was “most active compounds”.
On to `CCCCCC1=C(NCC(C)C)C(=O)C(C/C=C(\C)CCC=C(C)C)=C(O)C1=O` [Compound V, 6-(3,7-dimethyl-octa-2,6-dienyl)-5-hydroxy-3-pentyl-2-isobutylamino [1,4]benzoquinone], for which the “PPARg activation (fold)” value in series [1] and in series [3] was “higher efficiency than CBG-Q” throughout. Also, in series [2], the “protection” value is on record as “protect neuronal cells from glutamate-induced apoptosis”. Further, the “PPARg transactivation (luciferase activity, fold induction over untreated cells)” value in series [3] (setting [4]) is recorded as “most active compounds”.
For `CCCCCC1=C(NC)C(=O)C(C/C=C(\C)CCC=C(C)C)=C(O)C1=O` [Compound VII, 6-(3,7-dimethyl-octa-2,6-dienyl)-5-hydroxy-3-pentyl-2-methylamino-[1,4]benzoquinone], the “PPARg activation (fold)” value in series [3] is on record as “higher efficiency than CBG-Q”.
`CCCCCC1=C(NC(C)C)C(=O)C(C/C=C(\C)CCC=C(C)C)=C(O)C1=O` [Compound VIII, 6-(3,7-imethyl-octa-2,6-dienyl)-5-hydroxy-3-pentyl-2-isopropylamino-[1,4]benzoquinone]: the “PPARg activation (fold)” value in series [3] is on record as “higher efficiency than CBG-Q”.
On to `CN(CCOc1ccc(CC2SC(=O)NC2=O)cc1)c1ccccn1` (stereo not shown) [Rosiglitazone, reference compound], for which the “increase of PPARg activity” value in series [3] (setting [4]) is “more than 100 times”.
